Source: patent US9193719B2, “1,2,4-triazol-5-ones and analogs exhibiting anti-cancer and anti-proliferative activities” (Deciphera Pharmaceuticals, LLC, priority 2013, dated 2015)

Legend:
[1] = molecular target: T1, unphosphorylated c-FMS kinase (uFMS, Seq. ID no. 1) (Homo sapiens, UniProt P07333); assay: uFMS kinase enzymatic assay (pyruvate kinase/lactate dehydrogenase coupled); type: biochemical; settings: ATP 500 μM, rate 3 to 4 h
T1 construct: purchased Millipore
T1 sequence (P07333 538-972): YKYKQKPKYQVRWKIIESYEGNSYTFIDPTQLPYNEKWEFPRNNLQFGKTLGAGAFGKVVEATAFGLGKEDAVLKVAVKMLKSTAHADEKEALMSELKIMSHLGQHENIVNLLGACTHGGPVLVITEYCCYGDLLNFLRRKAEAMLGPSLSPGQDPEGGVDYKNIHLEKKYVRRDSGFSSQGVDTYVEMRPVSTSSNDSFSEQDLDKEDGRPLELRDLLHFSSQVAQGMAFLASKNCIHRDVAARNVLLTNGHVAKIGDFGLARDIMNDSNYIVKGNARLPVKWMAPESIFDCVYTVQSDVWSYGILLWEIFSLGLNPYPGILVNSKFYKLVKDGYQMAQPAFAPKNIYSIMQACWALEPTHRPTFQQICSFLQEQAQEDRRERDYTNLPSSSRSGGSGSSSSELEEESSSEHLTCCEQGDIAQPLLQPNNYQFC
Procedure: uFMS Kinase (Seq. ID No. 1) Assay
Activity of unphosphorylated c-FMS kinase (uFMS, Seq. ID no. 1) was determined by following the production of ADP from the FMS kinase reaction with ATP and poly E4Y as substrates through coupling with the pyruvate kinase/lactate dehydrogenase system (e.g., Schindler et al. Science (2000) 289: 1938-1942). In this assay, the oxidation of NADH (thus the decrease at A340 nm) was continuously monitored spectrophometrically. The reaction mixture (100 μL) contained FMS (purchased from Millipore) (10 nM), polyE4Y (1 mg/mL), MgCl2 (10 mM), pyruvate kinase (4 units), lactate dehydrogenase (0.7 units), phosphoenol pyruvate (1 mM), NADH (0.28 mM) and ATP (500 μM) in 90 mM Tris buffer containing 0.2% octyl-glucoside and 1% DMSO, pH 7.5. The inhibition reaction was started by mixing serial diluted test compound with the above reaction mixture. The absorption at 340 nm was monitored continuously for 4 hours at 30° C. on Synergy 2 plate reader. The reaction rate was calculated using the 3 to 4 h time frame. Percent inhibition was obtained by comparison of reaction rate with that of a control (i.e. in the absence of test compound). IC50 values were calculated from a series of percent inhibition values determined at a range of inhibitor concentrations using software routines as implemented in the GraphPad Prism software package.

[2] = molecular target: T2, unphosphorylated c-KIT kinase (uKIT, Seq. ID no. 2) (Homo sapiens, UniProt P10721); assay: uKit kinase enzymatic assay (pyruvate kinase/lactate dehydrogenase coupled); type: biochemical; settings: ATP 2000 μM, rate 3 to 4 h
T2 construct: uKit with N-terminal GST fusion used for screening
Procedure: uKit Kinase (Seq. ID No. 2) Assay
Activity of unphosphorylated c-KIT kinase (uKIT, Seq. ID no. 2) was determined by following the production of ADP from the KIT kinase reaction with ATP and poly E4Y as substrates through coupling with the pyruvate kinase/lactate dehydrogenase system (e.g., Schindler et al. Science (2000) 289: 1938-1942). In this assay, the oxidation of NADH (thus the decrease at A340 nm) was continuously monitored spectrophometrically. The reaction mixture (100 μl) contained unphosphorylated KIT (12 nM), polyE4Y (1 mg/mL), MgCl2 (10 mM), pyruvate kinase (4 units), lactate dehydrogenase (0.7 units), phosphoenol pyruvate (1 mM), and NADH (0.28 mM) and ATP (2000 μM) in 90 mM Tris buffer containing 0.2% octyl-glucoside and 1% DMSO, pH 7.5. The inhibition reaction was started by mixing serial diluted test compound with the above reaction mixture. The absorption at 340 nm was monitored continuously for 4 hours at 30° C. on Synergy 2 plate reader (BioTech). Reaction rates around 3 to 4 h time frame were used to calculate % inhibitions, from which IC50 values were generated.

[3] = molecular target: T3, unphosphorylated PDGFRβ kinase (uPDGFRβ, Seq. ID No. 3) (Homo sapiens, UniProt P09619); assay: uPDGFRβ kinase enzymatic assay (pyruvate kinase/lactate dehydrogenase coupled); type: biochemical; settings: ATP 500 μM, rate 1.5 to 2.5 h
T3 construct: purchased DeCode
Procedure: Unphosphorylated PDGFRβ (uPDGFRβ) Kinase (Seq. ID No. 3) Assay
Activity of unphosphorylated PDGFRβ kinase (uPDGFRβ, Seq. ID No. 3) was determined by following the production of ADP from the kinase reaction with ATP and poly E4Y as substrates through coupling with the pyruvate kinase/lactate dehydrogenase system (e.g., Schindler et al. Science (2000) 289: 1938-1942). In this assay, the oxidation of NADH (thus the decrease at A340 nm) was continuously monitored spectrophometrically. The reaction mixture (100 μL) contained PDGFRβ (DeCode, 15.7 nM), polyE4Y (2.5 mg/mL), MgCl2 (10 mM), pyruvate kinase (4 units), lactate dehydrogenase (0.7 units), phosphoenol pyruvate (1 mM) and NADH (0.28 mM) and ATP (500 μM) in a 90 mM Tris buffer containing 0.2% octyl-glucoside and 1% DMSO, at pH 7.5. The inhibition reaction was started by mixing serial diluted test compound with the above reaction mixture. The absorption at 340 nm was monitored continuously for 4 h at 30° C. on a Polarstar Optima or Synergy 2 plate reader. The reaction rate was calculated using the 1.5 to 2.5 h time frame. Percent inhibition was obtained by comparison of reaction rate with that of a control (i.e. with no test compound). IC50 values were calculated from a series of percent inhibition values determined at a range of inhibitor concentrations using software routines as implemented in the GraphPad Prism software package.

M-NFS-60 cells = assay: M-NFS-60 cell proliferation assay (resazurin); type: cell-based; settings: 67 h incubation
Procedure: M-NFS-60 cells (catalog #CRL-1838) were obtained from the American Type Culture Collection (ATCC, Manassas, Va.). Briefly, cells were grown in suspension in RPMI 1640 medium supplemented with 10% characterized fetal bovine serum (Invitrogen, Carlsbad, Calif.), 0.05 mM 2-mercaptoethanol, and 20 ng/mL mouse recombinant macrophage colony stimulating factor (M-CSF) at 37° C., 5% CO2, and 95% humidity. Cells were allowed to expand until reaching saturation at which point they were subcultured or harvested for assay use.
M-NFS-60 Cell Proliferation Assay
A serial dilution of test compound was dispensed into a 384-well black clear bottom plate (Corning, Corning, N.Y.). Two thousand five hundred cells were added per well in 50 μL complete growth medium. Plates were incubated for 67 h at 37° C., 5% CO2, and 95% humidity. At the end of the incubation period 10 μL of a 440 μM solution of resazurin (Sigma, St. Louis, Mo.) in PBS was added to each well and incubated for an additional 5 h at 37° C., 5% CO2, and 95% humidity. Plates were read on a Synergy2 reader (Biotek, Winooski, Vt.) using an excitation of 540 nm and an emission of 600 nm. IC50 values were calculated from a series of percent inhibition values determined at a range of inhibitor concentrations using software routines as implemented in the GraphPad Prism software package.

osteoclast precursors = assay: Osteoclast tartrate-resistant acid phosphatase assay; type: cell-based; settings: RANKL and M-CSF, 7-14 days, tartrate-resistant acid phosphatase activity
Procedure: Osteoclast Tartrate-Resistant Acid Phosphatase Assay
A serial dilution of test compound was dispensed into a 384-well black clear bottom plate (Nalge Nunc International, Rochester, N.Y.). Compound was diluted by the addition of DMEM media supplemented with 10% characterized fetal bovine serum (Invitrogen, Carlsbad, Calif.). Diluted compound was transferred to a 384-well black clear bottom plate. Two-thousand five hundred osteoclast precursors (Lonza, Walkersville, Md.) were added per well in growth media containing Receptor Activator of Nuclear Factor Kappa-beta ligand (RANKL) and M-CSF (R&D Systems, Minneapolis, Minn.). Plates were incubated for 7-14 days at 37 degrees Celsius, 5% CO2, and 95% humidity to allow differentiation of osteoclast precursors. At the end of the incubation period, 10 μL of supernatant from each well was transferred to a clear 384-well plate. Tartrate-resistant acid phosphatase activity in the supernatant samples was determined using an acid phosphatase assay kit (Sigma, St. Louis, Mo.). Absorbance was measured at 550 nm using a plate reader. Data was analyzed using Prism software (Graphpad, San Diego, Calif.) to calculate IC50 values.

T2 sequence (P10721 with tags, fused parts or gaps): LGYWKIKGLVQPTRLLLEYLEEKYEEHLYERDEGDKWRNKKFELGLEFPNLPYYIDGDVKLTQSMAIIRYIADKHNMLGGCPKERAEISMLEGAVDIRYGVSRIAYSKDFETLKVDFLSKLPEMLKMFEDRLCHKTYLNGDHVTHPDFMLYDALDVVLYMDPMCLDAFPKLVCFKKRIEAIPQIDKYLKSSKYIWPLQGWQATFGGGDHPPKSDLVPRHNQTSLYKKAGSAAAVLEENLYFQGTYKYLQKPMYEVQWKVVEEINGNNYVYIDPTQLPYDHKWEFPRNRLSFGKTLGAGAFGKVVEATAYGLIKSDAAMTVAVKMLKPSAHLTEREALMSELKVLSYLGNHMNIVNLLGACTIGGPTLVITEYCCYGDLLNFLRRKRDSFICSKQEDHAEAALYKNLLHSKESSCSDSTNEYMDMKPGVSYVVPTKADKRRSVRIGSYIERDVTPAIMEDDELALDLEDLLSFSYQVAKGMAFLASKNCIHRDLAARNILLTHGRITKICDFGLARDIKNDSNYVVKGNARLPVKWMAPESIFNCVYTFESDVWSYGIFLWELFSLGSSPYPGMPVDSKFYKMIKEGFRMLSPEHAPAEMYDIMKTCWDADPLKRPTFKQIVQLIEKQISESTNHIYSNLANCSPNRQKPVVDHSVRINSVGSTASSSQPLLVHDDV
T3 sequence (P09619 557-1106): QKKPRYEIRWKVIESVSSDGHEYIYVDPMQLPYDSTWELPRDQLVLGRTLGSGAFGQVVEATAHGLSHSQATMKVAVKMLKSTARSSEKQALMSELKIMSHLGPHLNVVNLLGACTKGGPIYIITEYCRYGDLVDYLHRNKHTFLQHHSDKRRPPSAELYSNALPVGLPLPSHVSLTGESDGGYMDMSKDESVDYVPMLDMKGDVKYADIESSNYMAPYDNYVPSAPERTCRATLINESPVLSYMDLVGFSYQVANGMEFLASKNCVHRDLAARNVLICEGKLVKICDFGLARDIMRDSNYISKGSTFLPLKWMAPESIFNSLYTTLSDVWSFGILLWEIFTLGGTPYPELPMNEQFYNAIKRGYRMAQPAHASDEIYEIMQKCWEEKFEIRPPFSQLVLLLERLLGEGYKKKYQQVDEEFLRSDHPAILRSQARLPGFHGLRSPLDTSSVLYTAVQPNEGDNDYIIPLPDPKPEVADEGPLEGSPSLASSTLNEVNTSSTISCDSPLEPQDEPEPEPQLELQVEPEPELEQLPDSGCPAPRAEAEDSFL

Row | Compound | IC50 [1] [nM] | IC50 [2] [nM] | IC50 [3] [nM] | IC50 (osteoclast precursors) [nM] | IC50 (M-NFS-60 cells) [nM]
1 | Cc1nc(-n2nc(C3CC3)[nH]c2=O)ccc1Oc1ccnc(-c2cnn(C)c2)c1 [Example 35, 3-cyclopropyl-1-(6-methyl-5-((2-(1-methyl-1H-pyrazol-4-yl)pyridin-4-yl)oxy)pyridin-2-yl)-1H-1,2,4-triazol-5(4H)-one] | 100 to 1000 | 100 to 1000 | > 1000 | 100 to 1000 | > 1000
2 | Cc1nc(-n2nc(C(C)(C)C)[nH]c2=O)ccc1Oc1ccnc(-c2ccnc(N3CCN(C)CC3)c2)c1 [Example 41, 3-(tert-butyl)-1-(6-methyl-5-((2′-(4-methylpiperazin-1-yl)-[2,4′-bipyridin]-4-yl)oxy)pyridin-2-yl)-1H-1,2,4-triazol-5(4H)-one] | 100 to 1000 | > 1000 | > 1000 | 100 to 1000 | > 1000
3 | Cc1nc(-n2nc(C(C)(C)CO)[nH]c2=O)ccc1Oc1ccnc(-c2cnn(C)c2)c1 [Example 42, 3-(1-hydroxy-2-methylpropan-2-yl)-1-(6-methyl-5-((2-(1-methyl-1H-pyrazol-4-yl)pyridin-4-yl)oxy)pyridin-2-yl)-1H-1,2,4-triazol-5(4H)-one] | 10 to 100 | > 1000 | > 1000 | 100 to 1000 | > 1000
4 | COC(C)(C)c1nn(-c2cc(C)c(Oc3ccnc(NC(C)=O)c3)cn2)c(=O)[nH]1 [Example 44, N-(4((6-(3-(2-methoxypropan-2-yl)-5-oxo-4,5-dihydro-1H-1,2,4-triazol-1-yl)-4-methylpyridin-3-yl)oxy)pyridin-2-yl)acetamide] | 100 to 1000 | 100 to 1000 | 100 to 1000 | 100 to 1000 | 100 to 1000
5 | Cc1nc(-n2nc(C(C)(C)C)[nH]c2=O)ccc1Oc1ccnc(NC(=O)C2CC2)c1 [Example 45, N-(4-((6-(3-(tert-butyl)-5-oxo-4,5-dihydro-1H-1,2,4-triazol-1-yl)-2-methylpyridin-3-yl)oxy)pyridin-2-yl)cyclopropanecarboxamide] | 100 to 1000 | > 1000 | > 1000 | 10 to 100 | 100 to 1000

Further lines, with some results ahead:

Row | IC50 [1] [nM] | IC50 [2] [nM] | IC50 [3] [nM] | IC50 (osteoclast precursors) [nM] | Compound | IC50 (M-NFS-60 cells) [nM]
6 | ≤ 10 | 10 to 100 | > 1000 | 10 to 100 | Cc1nc(-n2nc(-c3ccc(F)cc3)[nH]c2=O)ccc1Oc1ccnc(-c2cnn(C)c2)c1 [Example 28, 3-(4-fluorophenyl)-1-(6-methyl-5-((2-(1-methyl-1H-pyrazol-4-yl)pyridin-4-yl)oxy)pyridin-2-yl)-1H-1,2,4-triazol-5(4H)-one] | 10 to 100
7 | 10 to 100 | 100 to 1000 | > 1000 | 100 to 1000 | Cc1cn(-c2cc(Oc3ccc(-n4nc(-c5ccc(F)cc5)[nH]c4=O)nc3C)ccn2)cn1 [Example 29, 3-(4-fluorophenyl)-1-(6-methyl-5-((2-(4-methyl-1H-imidazol-1-yl)pyridin-4-yl)oxy)pyridin-2-yl)-1H-1,2,4-triazol-5(4H)-one] | 100 to 1000
8 | 10 to 100 | 10 to 100 | 100 to 1000 | 100 to 1000 | Cc1nc(-n2nc(-c3ccc(F)cc3)[nH]c2=O)ccc1Oc1ccnc(NC(=O)C2CC2)c1 [Example 32, N-(4-((6-(3-(4-fluorophenyl)-5-oxo-4,5-dihydro-1H-1,2,4-triazol-1-yl)-2-methylpyridin-3-yl)oxy)pyridin-2-yl)cyclopropanecarboxamide] | 100 to 1000
9 | ≤ 10 | ≤ 10 | 10 to 100 | 10 to 100 | Cc1nc(-n2nc(C3CCCC3)[nH]c2=O)ccc1Oc1ccnc(-c2cnn(C)c2)c1 [Example 34, 3-cyclopentyl-1-(6-methyl-5-((2-(1-methyl-1H-pyrazol-4-yl)pyridin-4-yl)oxy)pyridin-2-yl)-1H-1,2,4-triazol-5(4H)-one] | ≤ 10
10 | 10 to 100 | 100 to 1000 | > 1000 | 10 to 100 | Cc1nc(-n2nc(C(C)(C)C)[nH]c2=O)ccc1Oc1ccnc(-c2ccc(N3CCN(C)CC3)nc2)c1 [Example 40, 3-(tert-butyl)-1-(6-methyl-5-((6′-(4-methylpiperazin-1-yl)-[2,3′-bipyridin]-4-yl)oxy)pyridin-2-yl)-1H-1,2,4-triazol-5(4H)-one] | 10 to 100
